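Step 1: Grow cells in 96-well plates. Step 2: Expose to compound for 48 hours at 5 concentrations. Step 3: Interpolate endpoints linearly; if unreached, use highest concentration. At the GI50, growth is halved. The concentration for full growth arrest is given as TGI.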
Key:
Assay in all cases: DTP human tumour cell line panel, 48 h
[1] = tested on: PC-3 prostate
[2] = tested on: HOP-62 NSCLC
[3] = tested on: SN12C renal
[4] = tested on: SW-620 colon
[5] = tested on: EKVX NSCLC
[6] = tested on: OVCAR-4 ovarian
[7] = tested on: UO-31 renal
[8] = tested on: MDA-MB-231 breast
[9] = tested on: OVCAR-8 ovarian
[10] = tested on: IGROV1 ovarian
[11] = tested on: SF-295 CNS
[12] = tested on: SK-MEL-2 melanoma
[13] = tested on: NCI-H460 lung
[14] = tested on: ACHN renal
[15] = tested on: NCI-H226 lung
[16] = tested on: U251 CNS
[17] = tested on: SK-MEL-28 melanoma
[18] = tested on: SR leukemia
[19] = tested on: SF-268 CNS
[20] = tested on: A549 NSCLC
[21] = tested on: HCT-15 colon
[22] = tested on: HCT-116 colon
[23] = tested on: CCRF-CEM leukemia
[24] = tested on: KM12 colon
[25] = tested on: MCF7 breast
[26] = tested on: RXF 393 renal
[27] = tested on: HCC-2998 colon
[28] = tested on: NCI-H23 lung
[29] = tested on: M14 melanoma
[30] = tested on: UACC-257 melanoma
[31] = tested on: HS 578T breast
[32] = tested on: HT29 colon
[33] = tested on: A498 renal
[34] = tested on: MOLT-4 leukemia
[35] = tested on: UACC-62 melanoma
[36] = tested on: LOX IMVI melanoma
[37] = tested on: NCI-H522 lung
[38] = tested on: RPMI-8226 leukemia
[39] = tested on: K-562 leukemia
[40] = tested on: TK-10 renal
[41] = tested on: SF-539 CNS
[42] = tested on: NCI/ADR-RES ovarian
[43] = tested on: DU-145 prostate
[44] = tested on: OVCAR-3 ovarian
[45] = tested on: COLO 205 colon
[46] = tested on: T-47D breast
[47] = tested on: SNB-19 CNS
[48] = tested on: HOP-92 NSCLC
[49] = tested on: SK-OV-3 ovarian
[50] = tested on: SK-MEL-5 melanoma
[51] = tested on: OVCAR-5 ovarian
[52] = tested on: HL-60(TB) leukemia
[53] = tested on: MDA-MB-435
[54] = tested on: CAKI-1 renal
[55] = tested on: BT-549 breast
[56] = tested on: SNB-75 CNS
[57] = tested on: MALME-3M melanoma
[58] = tested on: 786-0 renal

Question: Which results are given for `Nc1ccc(S(=O)(=O)c2ccc(N)cc2)cc1`?
Answer: GI50 [1]: > 100 µM; TGI [1]: > 100 µM; GI50 [2]: > 100 µM; TGI [2]: > 100 µM; GI50 [3]: > 100 µM; TGI [3]: > 100 µM; GI50 [4]: > 100 µM; TGI [4]: > 100 µM; GI50 [5]: > 100 µM; TGI [5]: > 100 µM; GI50 [6]: > 100 µM; TGI [6]: > 100 µM; GI50 [7]: > 100 µM; TGI [7]: > 100 µM; GI50 [8]: > 100 µM; TGI [8]: > 100 µM; GI50 [9]: > 100 µM; TGI [9]: > 100 µM; GI50 [10]: > 100 µM; TGI [10]: > 100 µM; GI50 [11]: > 100 µM; TGI [11]: > 100 µM; GI50 [12]: > 100 µM; TGI [12]: > 100 µM; GI50 [13]: > 100 µM; TGI [13]: > 100 µM; GI50 [14]: > 100 µM; TGI [14]: > 100 µM; GI50 [15]: > 100 µM; TGI [15]: > 100 µM; GI50 [16]: > 100 µM; TGI [16]: > 100 µM; GI50 [17]: > 100 µM; TGI [17]: > 100 µM; GI50 [18]: > 100 µM; TGI [18]: > 100 µM; GI50 [19]: > 100 µM; TGI [19]: > 100 µM; GI50 [20]: > 100 µM; TGI [20]: > 100 µM; GI50 [21]: > 100 µM; TGI [21]: > 100 µM; GI50 [22]: > 100 µM; TGI [22]: > 100 µM; GI50 [23]: > 100 µM; TGI [23]: > 100 µM; GI50 [24]: > 100 µM; TGI [24]: > 100 µM; GI50 [25]: > 100 µM; TGI [25]: > 100 µM; GI50 [26]: > 100 µM; TGI [26]: > 100 µM; GI50 [27]: > 100 µM; TGI [27]: > 100 µM; GI50 [28]: > 100 µM; TGI [28]: > 100 µM; GI50 [29]: > 100 µM; TGI [29]: > 100 µM; GI50 [30]: > 100 µM; TGI [30]: > 100 µM; GI50 [31]: 68.4 µM; TGI [31]: > 100 µM; GI50 [32]: > 100 µM; TGI [32]: > 100 µM; GI50 [33]: 64.8 µM; TGI [33]: > 100 µM; GI50 [34]: > 100 µM; TGI [34]: > 100 µM; GI50 [35]: > 100 µM; TGI [35]: > 100 µM; GI50 [36]: > 100 µM; TGI [36]: > 100 µM; GI50 [37]: > 100 µM; TGI [37]: > 100 µM; GI50 [38]: > 100 µM; TGI [38]: > 100 µM; GI50 [39]: > 100 µM; TGI [39]: > 100 µM; GI50 [40]: > 100 µM; TGI [40]: > 100 µM; GI50 [41]: > 100 µM; TGI [41]: > 100 µM; GI50 [42]: > 100 µM; TGI [42]: > 100 µM; GI50 [43]: > 100 µM; TGI [43]: > 100 µM; GI50 [44]: > 100 µM; TGI [44]: > 100 µM; GI50 [45]: > 100 µM; TGI [45]: > 100 µM; GI50 [46]: > 100 µM; TGI [46]: > 100 µM; GI50 [47]: > 100 µM; TGI [47]: > 100 µM; GI50 [48]: > 100 µM; TGI [48]: > 100 µM; GI50 [49]: > 100 µM; TGI [49]: > 100 µM; GI50 [50]: > 100 µM; TGI [50]: > 100 µM; GI50 [51]: > 100 µM; TGI [51]: > 100 µM; GI50 [52]: > 100 µM; TGI [52]: > 100 µM; GI50 [53]: > 100 µM; TGI [53]: > 100 µM; GI50 [54]: > 100 µM; TGI [54]: > 100 µM; GI50 [55]: > 100 µM; TGI [55]: > 100 µM; GI50 [56]: > 100 µM; TGI [56]: > 100 µM; GI50 [57]: > 100 µM; TGI [57]: > 100 µM; GI50 [58]: > 100 µM; TGI [58]: > 100 µM

From PubChem BioAssay (NCI)
